The text below walks through data of patent publication US20030134329A1, “Cross-species bioactive peptides” (priority 2001, published 2003).

The test system of assay [1] is FLO11 promoter (PFLO11) fused to the neo gene. Briefly: PFLO11-neo reporter selection: G418 resistance on YPD. It is filed as cell-based, S. cerevisiae. To be noted: strain MY1560, YPD + 100 μg/ml G418. The source says:
To identify peptides that promote invasion we used S. cerevisiae strain MY1560 (MATα/MATαΔ::LEU2 ura3Δ::PFLO11-neo/ura3Δ0 leu2Δ0/leu2Δ0 trp1Δ0::hisG/trp1Δ10::hisG his3Δ0::hisG/his3Δ0::hisG). This strain contains the FLO11 promoter (PFLO11) fused to the neo gene conferring resistance to the drug G418. FLO11 is a cell-surface flocculin required for pseudohyphal and invasive growth in S. cerevisiae. […] Thus, altered FLO11 expression can be used as an indicator of an altered invasion phenotype.
It was empirically determined that the wild type MY1560 strain (untransformed or transformed with a plasmid representing the peptide library staph nuclease scaffold) is unable to grow on YPD media supplemented with 100 μg/ml G418. In contrast, hyperinvasive strains are resistant to this concentration of the drug and form colonies on G418-supplemented YPD media. Thus, transformation of this strain with an invasion-promoting peptide should render the cells capable of growing on G418-supplemented YPD media. […]

The test system of a further assay is FLO11. Briefly: PFLO11-lacZ reporter, β-galactosidase activity. It is filed as cell-based, S. cerevisiae. To be noted: Table 1, strain MY1405 with plasmid MB1339, control pTCN23 = 1.0. The source says:
Transformation of S. cerevisiae was by lithium acetate/single-stranded carrier DNA/polyethylene glycol (LiAc/ss-DNA/PEG) protocol (see, e.g., Gietz and Woods (1998), in: Methods in Microbiology, Chapter 26, Brown and Tuite, eds., Academic Press, New York; Agatep et al. (1998), TTO 1:P01525, Technical Tips Online at http://tto.trends.com) with a library of plasmids expressing unique random peptide sequences in the context of a Staphylococcal nuclease “scaffold” to generate more than 20 million independent Ura^+ transformants (Norman et al. (1999), Science 285:591-595). The transformants were replica-plated to YPD plates supplemented with […] G418 to select for clones with increased expression of the invasion-related reporter (FLO11) and consequent G418 resistance. Plates were incubated at 30° C. for 2-4 days and resistant clones were collected in pools (50 pools total) by scraping the colonies off each plate in a small volume of water. Plasmids were isolated as a pool (Hoffman and Winston (1986), Gene 57:267), transformed into E. coli, and re-transformed as a pool into the original selection strain, MY1560. Ura^+ transformants were again replica plated to YPD+100 μg/ml G418 plates. […] Positive clones were further tested for plasmid dependence by (1) examining the correlation between spontaneous loss of the peptide-expressing plasmid and loss of G418 resistance, and (2) recovering the plasmid from the yeast, retransforming into the original selection strain, and characterizing the G418 resistance. […] The remaining candidate peptides were characterized for their effects on expression of PFLO11-lacZ reporter constructs. This was performed by co-transforming the candidate plasmid into S. cerevisiae strain MY1405 (MATα ura3Δ0 his3Δ0::hisG trp1Δ0::hisG) which contains plasmid MB1339 [PFLO11-lacZ TRP1 […]] and measuring β-galactosidase activity.

As to “GSNGCVSVSSSVTSFM [5-49, 3, invasion-promoting random peptide expressed in loop of Staphylococcal nuclease scaffold]”, the “PFLO11-neo Mediated G418^R” value in assay [1] is “+w”. Also, the “FL011-lacZ (relative expression)” value in the assay on FLO11 is given as 2.5.
